“And” between values parts separate entries of the source, which are not always exact repeats. Equal values may be shown once. Where a SMILES comes first, the peptide text is derived from it. Bridges are numbered along the chain shown (N, C = ends).
How the values were obtained:
MMP-2 [1] = biological target: T1, MMP-2 (Homo sapiens, UniProt P08253); test: MMP-2 inhibition assay (Enzo kit, OmniMMP RED fluorogenic substrate); type: biochemical
T1 construct: purchased Enzo Life Sciences (MMP-2 drug discovery kit)
Method: The MMP-2 inhibition assay was performed using the Enzo Life Sciences MMP-2 drug discovery kit. and the quenched fluorogenic substrate OmniMMP RED. Reference substrate was diluted to a final concentration of 5 μM, while the MMP-2 enzyme was diluted to 58 mU/µL, and the N-Isobutyl-N-(4-methoxyphenylsulfonyl)glycyl hydroxamic acid (NNGH) inhibitor was diluted to a concentration of 1/200 in assay buffer. […] The assay was performed using a black 96-well microplate. Fluorescence was measured at excitation/emission wavelengths of 545/576 nm, with a cutoff at 570 nm using Gen5 microplate reader (BioTeK, Shoreline, WA). Baseline fluorescence was recorded before adding NNGH inhibitor which was used as a positive control for MMP-2 inhibition. Reaction mixtures in the plate were incubated at 37 °C for 10 min, and fluorescence was measured at 10 min intervals for the first 30 min, then at 30 min intervals until 2 h had elapsed. […] Statistical analysis was performed using ANOVA with GraphPad Prism software, version 10.0.3.

Neuropilin-1 (NRP-1) = biological target: T2, Neuropilin-1 (NRP-1) (Homo sapiens, UniProt O14786); test: Surface plasmon resonance (SPR), immobilized NRP-1; type: binding; details: NTA chip, steady-state affinity model, pH 7.4, n = 3, 4 replicates, read-out: dissociation constant (KD) for NRP-1
T2 construct: containing amino acid residues Phe22-Lys644, with a poly-histidine tag at the C-terminus; purchased ACROBiosystems NR1-H5228
T2 sequence (O14786 22-644 isoform O14786-2): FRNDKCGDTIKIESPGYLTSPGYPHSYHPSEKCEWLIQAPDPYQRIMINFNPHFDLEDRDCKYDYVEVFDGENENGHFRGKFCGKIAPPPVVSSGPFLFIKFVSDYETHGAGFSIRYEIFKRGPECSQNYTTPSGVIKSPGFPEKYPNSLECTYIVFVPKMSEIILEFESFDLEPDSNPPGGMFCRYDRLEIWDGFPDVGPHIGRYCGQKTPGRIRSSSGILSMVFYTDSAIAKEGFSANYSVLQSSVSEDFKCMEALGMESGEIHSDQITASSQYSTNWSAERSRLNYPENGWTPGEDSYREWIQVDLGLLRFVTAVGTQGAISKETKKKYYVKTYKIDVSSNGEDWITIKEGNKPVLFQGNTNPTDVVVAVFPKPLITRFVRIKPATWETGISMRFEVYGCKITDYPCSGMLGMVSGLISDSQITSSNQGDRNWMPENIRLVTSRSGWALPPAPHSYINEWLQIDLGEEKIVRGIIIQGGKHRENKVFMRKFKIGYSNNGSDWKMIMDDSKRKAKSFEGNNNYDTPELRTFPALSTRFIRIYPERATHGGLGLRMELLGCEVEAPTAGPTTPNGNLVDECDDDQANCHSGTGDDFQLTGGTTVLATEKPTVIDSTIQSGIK
Method: Surface plasmon resonance (SPR) reagents, plates, and the NTA chip were purchased from GE Healthcare Life Sciences, now Cytiva (Marlborough, MA, USA). Measurements were performed using the Biacore 8000 SPR System (Marlborough, MA. USA). The running buffer used for protein immobilization and peptide binding consisted of 20 mM Tris, 150 mM NaCl, […] and 0.0005% Tween-20, adjusted to pH 7.4. MMP-2 and NRP-1 were immobilized onto the NTA chip at 15 nM and 25 nM concentration, respectively. Peptides were injected over the immobilized proteins using two-fold serial dilutions from 500 µM to 3.90 µM. Three experiments with four replicates of each were performed. The SPR response curves generated from the Biacore Insight Evaluation Software were fitted to a steady-state affinity model to obtain an equilibrium dissociation constant (KD) for each peptide — protein interaction.

MMP-2 [2] = biological target: T3, MMP-2 (Homo sapiens, UniProt P08253); test: Differential scanning fluorimetry (DSF); type: binding; set-up: Dtm (ΔTm): unit not given here; details: for Dtm (ΔTm), average: average of replicates
T3 construct: ProSpec Bio; Antibodies-Online; Elabscience; Abcam ENZ-769; ABIN7400042; PKSH033450
T3 sequence (P08253 110-660): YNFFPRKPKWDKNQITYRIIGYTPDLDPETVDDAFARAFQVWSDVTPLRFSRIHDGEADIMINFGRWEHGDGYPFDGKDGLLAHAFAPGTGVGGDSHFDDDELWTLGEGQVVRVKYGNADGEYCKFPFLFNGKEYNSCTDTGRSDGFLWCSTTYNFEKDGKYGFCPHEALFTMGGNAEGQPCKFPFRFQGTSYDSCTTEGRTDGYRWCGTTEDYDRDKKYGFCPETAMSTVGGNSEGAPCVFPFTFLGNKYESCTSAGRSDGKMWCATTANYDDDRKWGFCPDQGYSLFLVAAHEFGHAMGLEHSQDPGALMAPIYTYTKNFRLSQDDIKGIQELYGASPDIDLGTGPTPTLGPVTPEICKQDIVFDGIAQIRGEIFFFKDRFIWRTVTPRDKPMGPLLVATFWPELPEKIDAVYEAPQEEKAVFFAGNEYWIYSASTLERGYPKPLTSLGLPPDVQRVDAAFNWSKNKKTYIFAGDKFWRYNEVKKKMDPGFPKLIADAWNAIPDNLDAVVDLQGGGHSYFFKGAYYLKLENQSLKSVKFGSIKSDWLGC
Method: The melting temperatures (Tm) of recombinant MMP-2 and its complexes with peptides were ascertained using BioRad CFX384 Touch real-time PCR (Hercules, CA, USA). The experiments were performed as previously described. The unfolding of the protein was detected using the fluorescent SYPRO-orange dye (Invitrogen, Carlsbad, CA, USA). MMP-2 and prospective ligand peptides were dissolved in 7.1 pH phosphate buffered saline (154 mM NaCl, 5.6 mM Na2PO4, 1.1 mM KH2PO4), and the reaction mixture was made to a final concentration of 1 µM of protein, either 30 µM ([…]) of peptide, and 1000x dilution of the SYPRO-Orange dye stock from the manufacturer. Excitation and emission filters of the dye were set at 450 − 490 nm and 560 − 580 nm, respectively. The temperature for the reaction was held at 25 °C for 5 min, and then a gradient of 25 °C to 95 °C was applied at a rate of 0.3 °C/min, and the fluorescence was recorded. To determine Tm of the protein, the first derivatives of melting curves were plotted using GraphPad Prism software, version 10.0.3.

[3] = peptide 30, P75/P76 experiment 1, replicate 1
[4] = peptide 30, P75/P76 experiment 1, replicate 2
[5] = peptide 30, P75/P76 experiment 1, replicate 3
[6] = peptide 30, P75/P76 experiment 2, replicate 1
[7] = peptide 30, P75/P76 experiment 2, replicate 2
[8] = peptide 30, P75/P76 experiment 2, replicate 3
[9] = peptide 30, P75/P76 experiment 3, replicate 1
[10] = peptide 30, P75/P76 experiment 3, replicate 2
[11] = peptide 30, P75/P76 experiment 3, replicate 3
[12] = peptide 50, P75/P76 experiment 1, replicate 2
[13] = peptide 50, P75/P76 experiment 1, replicate 3
[14] = peptide 50, P75/P76 experiment 2, replicate 1
[15] = peptide 50, P75/P76 experiment 2, replicate 2
[16] = peptide 50, P75/P76 experiment 2, replicate 3
[17] = peptide 50, P75/P76 experiment 3, replicate 1
[18] = peptide 50, P75/P76 experiment 3, replicate 2
[19] = peptide 50, P75/P76 experiment 3, replicate 3

## COc1ccc(S(=O)(=O)N(CC(=O)NO)CC(C)C)cc1 [NNGH, N-Isobutyl-N-(4-methoxyphenylsulfonyl)glycyl hydroxamic acid]
MMP-2 [1]
  MMP-2 enzymatic activity, percent of control: 11.2096 and 16.193

## CC(=O)NCC(=O)N[C@@H](CCCNC(=N)N)C(=O)NCC(=O)N[C@@H](CCCCN)C(=O)N[C@H]1CSSC[C@@H](C(=O)N[C@@H](CC(C)C)C(=O)N[C@@H](CO)C(=O)N[C@@H](CCCNC(=N)N)C(N)=O)NC(=O)[C@H](CCC(N)=O)NC(=O)[C@@H]2CCCN2C(=O)CNC(=O)[C@H](Cc2ccc(O)cc2)NC1=O [P75, Ac-[Ser^35,Cyc(28,33)]Ctx(24–36)-NH2] (Ac-GRGKCYGPQCLSR-NH2; disulfide 5-10)
Neuropilin-1 (NRP-1)
  Kd: 330 ± 146 µM
MMP-2 [2]; [3]
  Dtm (ΔTm): 1.067
MMP-2 [2]; [4]
  Dtm (ΔTm): 1.067
MMP-2 [2]; [5]
  Dtm (ΔTm): 1.367
MMP-2 [2]; [6]
  Dtm (ΔTm): 0.6
MMP-2 [2]; [7]
  Dtm (ΔTm): 0.6
MMP-2 [2]; [8]
  Dtm (ΔTm): 0.6
MMP-2 [2]; [9]
  Dtm (ΔTm): 0.2
MMP-2 [2]; [10]
  Dtm (ΔTm): -0.4
MMP-2 [2]; [11]
  Dtm (ΔTm): -0.1
MMP-2 [2]; peptide 50 (µM per method)
  Dtm (ΔTm), average: 0.7556

## CC(=O)N[C@@H](CCCCN)C(=O)N[C@H]1CSSC[C@@H](C(=O)N[C@@H](CC(C)C)C(N)=O)NC(=O)[C@H](CCC(N)=O)NC(=O)[C@@H]2CCCN2C(=O)CNC(=O)[C@H](Cc2ccc(O)cc2)NC1=O [P78, Ac-[Cyc(28,33)]Ctx(27–34)-NH2] (Ac-KCYGPQCL-NH2; disulfide 2-7)
Neuropilin-1 (NRP-1)
  Kd: 267 ± 103 µM

## Ac-[Cys^26,Ser^28,33,Cyc(26,35)]Ctx(24–36)-NH2 [P76]
MMP-2 [1]; peptides at 1 µM, 50 µM and 100 µM, one-way ANOVA vs control
  inhibition of MMP-2 enzymatic activity (Fig 10B): not statistically significant
MMP-2 [2]; 1 µM MMP-2, 30 µM (Ctx) or 50 µM (P75 and P76) peptide, PBS pH 7.1, SYPRO-Orange, average and SD of n ≥ 3, SD
  ΔTm ± SD, change in melting temperature of MMP-2: 0.63 ± 0.36 °C
MMP-2 [2]; peptide 30 (µM per method)
  Dtm (ΔTm), average: 0.6556
MMP-2 [2]; [3]
  Dtm (ΔTm): -0.7333
  Tm of MMP-2 with peptide: 45.7 °C
MMP-2 [2]; [4]
  Dtm (ΔTm): -0.4333
  Tm of MMP-2 with peptide: 46 °C
MMP-2 [2]; [5]
  Dtm (ΔTm): 0.1667
  Tm of MMP-2 with peptide: 46.6 °C
MMP-2 [2]; [6]
  Dtm (ΔTm): 1.8
  Tm of MMP-2 with peptide: 48.7 °C
MMP-2 [2]; [7]
  Dtm (ΔTm): 1.5
  Tm of MMP-2 with peptide: 48.4 °C
MMP-2 [2]; [8]
  Dtm (ΔTm): 1.8
  Tm of MMP-2 with peptide: 48.7 °C
MMP-2 [2]; [9]
  Dtm (ΔTm): 0.5
  Tm of MMP-2 with peptide: 47.8 °C
MMP-2 [2]; [10]
  Dtm (ΔTm): 0.5
  Tm of MMP-2 with peptide: 47.8 °C
MMP-2 [2]; [11]
  Dtm (ΔTm): 0.8
  Tm of MMP-2 with peptide: 48.1 °C
MMP-2 [2]; peptide 50 (µM per method)
  Dtm (ΔTm), average: 0.6222
MMP-2 [2]; peptide 50, P75/P76 experiment 1, replicate 1
  Tm of MMP-2 with peptide: 47.8 °C
MMP-2 [2]; [12]
  Dtm (ΔTm): 0.6
  Tm of MMP-2 with peptide: 47.8 °C
MMP-2 [2]; [13]
  Dtm (ΔTm): 0.6
  Tm of MMP-2 with peptide: 47.8 °C
MMP-2 [2]; [14]
  Dtm (ΔTm): 0.5
  Tm of MMP-2 with peptide: 47.4 °C
MMP-2 [2]; [15]
  Dtm (ΔTm): 1.2
  Tm of MMP-2 with peptide: 48.1 °C
MMP-2 [2]; [16]
  Dtm (ΔTm): 1.2
  Tm of MMP-2 with peptide: 48.1 °C
MMP-2 [2]; [17]
  Dtm (ΔTm): 0.2
  Tm of MMP-2 with peptide: 47.5 °C
MMP-2 [2]; [18]
  Dtm (ΔTm): 0.5
  Tm of MMP-2 with peptide: 47.8 °C
MMP-2 [2]; [19]
  Dtm (ΔTm): 0.2
  Tm of MMP-2 with peptide: 47.5 °C
